From patent US20100317630A1, “NOVEL HETEROCYCLIC COMPOUNDS AS MGLU5 ANTAGONISTS” (RECORDATI IRELAND LIMITED, priority 2009, published 2010)

How the values were obtained:
[1] = target: T1, mGlu5 receptor (Rattus norvegicus, UniProt P31424); assay: Radioligand binding assay at metabotropic glutamate receptor 5 in rat brain ([3H]MPEP, forebrain membranes); conditions: 4 nM [3H]MPEP, read-out: affinity (Ki) for mGlu5 receptor
T1 construct: from tissue; host or cells: forebrain (cortex, striatum and hippocampus) of male Sprague Dawley rats
T1 sequence (P31424 21-1203): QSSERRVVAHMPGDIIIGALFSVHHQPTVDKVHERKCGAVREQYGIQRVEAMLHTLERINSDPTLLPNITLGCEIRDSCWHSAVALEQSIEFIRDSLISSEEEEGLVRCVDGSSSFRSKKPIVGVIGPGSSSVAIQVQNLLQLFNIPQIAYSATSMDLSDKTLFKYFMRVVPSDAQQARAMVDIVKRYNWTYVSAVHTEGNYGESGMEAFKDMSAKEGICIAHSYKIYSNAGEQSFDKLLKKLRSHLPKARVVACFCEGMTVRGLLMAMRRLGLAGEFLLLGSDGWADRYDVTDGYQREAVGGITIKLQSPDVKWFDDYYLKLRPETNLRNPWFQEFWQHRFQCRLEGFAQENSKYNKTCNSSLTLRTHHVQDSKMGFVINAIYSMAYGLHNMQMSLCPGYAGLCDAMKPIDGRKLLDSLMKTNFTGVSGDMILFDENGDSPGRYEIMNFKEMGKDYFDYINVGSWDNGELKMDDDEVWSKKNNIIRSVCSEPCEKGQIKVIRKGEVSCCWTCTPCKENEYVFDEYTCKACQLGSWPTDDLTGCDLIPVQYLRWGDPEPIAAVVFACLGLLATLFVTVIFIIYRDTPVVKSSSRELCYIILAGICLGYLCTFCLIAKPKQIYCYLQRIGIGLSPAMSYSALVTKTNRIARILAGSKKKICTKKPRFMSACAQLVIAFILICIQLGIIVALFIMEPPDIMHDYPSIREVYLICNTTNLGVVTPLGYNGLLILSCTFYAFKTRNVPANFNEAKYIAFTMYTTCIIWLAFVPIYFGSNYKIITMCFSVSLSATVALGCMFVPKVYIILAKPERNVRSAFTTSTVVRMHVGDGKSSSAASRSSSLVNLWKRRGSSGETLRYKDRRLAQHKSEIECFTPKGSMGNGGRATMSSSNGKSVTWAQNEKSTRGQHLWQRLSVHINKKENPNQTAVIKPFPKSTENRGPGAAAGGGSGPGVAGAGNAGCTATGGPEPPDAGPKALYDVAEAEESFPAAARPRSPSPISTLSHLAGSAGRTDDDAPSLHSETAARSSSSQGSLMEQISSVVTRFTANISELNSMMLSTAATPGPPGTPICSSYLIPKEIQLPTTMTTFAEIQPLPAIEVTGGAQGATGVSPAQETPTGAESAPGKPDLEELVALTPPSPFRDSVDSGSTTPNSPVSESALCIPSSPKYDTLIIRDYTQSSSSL
Experimental: Radioligand Binding Assay at metabotropic glutamate receptor 5 in rat brain.
a) Membrane preparation: male Sprague Dawley rats (200-300 g, Charles River, Italy) were killed by cervical dislocation and the forebrain (cortex, striatum and hippocampus) was homogenized (2×20 sec) in 50 vols of cold 50 mM Tris buffer pH 7.4, using a Politron homogenizer (Kinematica). Homogenates were centrifuged at 48000×g for 15 min, resuspended in 50 vols of the same buffer, incubated at 37° C. for 15 min and centrifuged and resuspended two more times. The final pellets were frozen and stored at −80° C. until use.
b) Binding assay: pellets from rat forebrain were resuspended in 100 vols of 20 mM HEPES, 2 mM MgCl2, 2 mM CaCl2, pH 7.4. The membranes were incubated in a final volume of 1 ml for 60 min at 25° C. with 4 nM [^3H]MPEP in the absence or presence of competing drugs. Non-specific binding was determined in the presence of 10 μM MPEP (Spooren W. et al., Trends Pharmacol Sci. 22, 331-337, 2001). The incubation was stopped by the addition of cold Tris buffer pH 7.4 and rapid filtration through 0.5% polyethyleneimine pretreated Filtermat 1204-401 (Wallac) filters. The filters were then washed with cold buffer and the radioactivity retained on the filters was counted by liquid scintillation spectrometry. […]

[2] = tested on: conscious rats; assay: Effect on cystometry in conscious rats (bladder volume capacity); type: in vivo, rat
Experimental: Male Sprague-Dawley rats [Crl: CD® (SD) IGS BR] of 300-400 g b.w. supplied by Charles River Italia were used. The animals were housed with free access to food and water and maintained on a forced 12-hour-light/12-hour-dark cycle at 22-24° C. of temperature, except during the experiment. To quantify urodynamic parameters in conscious rats, cystometrographic studies were performed according to the procedure previously reported (Guarneri et al., Pharmacol. Res. 24: 175, 1991).
Briefly, the rats were anaesthetised by intraperitoneal administration of 3 ml/kg of Equithensin solution (pentobarbital 30 mg/kg and chloral hydrate 125 mg/kg) and placed in a supine position. An approximately 10 mm long midline incision was made in the shaved and cleaned abdominal wall. The urinary bladder was gently freed from adhering tissues, emptied and then cannulated via an incision in the bladder body, using a polyethylene cannula (0.58 mm internal diameter, 0.96 mm external diameter) which was permanently sutured with silk thread. […]
On the day of the experiment, the rats were placed in modified Bollman cages, i.e., restraining cages that were large enough to permit the rats to adopt a normal crouched posture, but narrow enough to prevent turning around. […] The intraluminal-pressure signal during infusion of saline into the bladder (cystometrogram) was continuously recorded on a polygraph (Rectigraph-8K San-ei with BM614/2 amplifier from Biomedica Mangoni) or stored on PC by data acquisition system (PowerLab, Chart 4 software, AD Instruments). From the cystometrogram, bladder volume capacity (BVC) was evaluated. […] Basal BVC value was evaluated as the mean of the values observed in the cystometrograms recorded in an initial period of 30-60 minutes. […] The bladder infusion restarted and changes in BVC were evaluated from the mean values obtained in the cystometrograms observed during 1, 2, and 3 hours after treatment. […]
Each experimental group was composed of 4-11 animals. All data were expressed as mean±standard error. […]

| Ki [1] | Structure (SMILES) | increase of bladder volume capacity ([2]; 1 mg/kg orally) | increase of bladder volume capacity ([2]; 3 mg/kg orally, statistically significant from the vehicle group after 3 hours from treatment) | MED (Minimal Effective Dose that induces statistically significant increase of bladder volume capacity) ([2]; oral) |
| --- | --- | --- | --- | --- |
| 1.42 nM | Cc1ccc([N+](=O)[O-])c(N2CCC(=C/C=C/c3ccccc3)CC2)n1 [Example 1, 6-Methyl-3-nitro-2-[4-[(E)-3-phenylprop-2-enylidene]-1-piperidyl]pyridine] | – | – | – |
| – | Cc1nc(C#Cc2cccnc2)cs1 [MTEP] | slight increase | sustained increase | 3 |
